Data as given in ChEMBL document CHEMBL1134920, “1,3,4-Trisubstituted pyrrolidine CCR5 receptor antagonists. Part 4: synthesis of N-1 acidic functionality affording analogues with enhanced antiviral activity against HIV” (Bioorg Med Chem Lett, 2002).

How the values were obtained:
[1] = molecular target: C-C chemokine receptor type 5 (Homo sapiens, UniProt P51681); assay: In vitro binding affinity at CCR5 receptor in the presence of [125I]-MIP-1 alpha.
[2] = test system: Human immunodeficiency virus 1; assay: In vitro inhibition of HIV-1 BAL strain infection of HeLa cell line.; assay type: functional; details: Human immunodeficiency virus 1, HeLa
[3] = Half-life in rat; assay type: ADME, organism-based; details: in vivo
[4] = molecular target: Voltage-gated L-type calcium channel (Homo sapiens, UniProt Q13936+Q13698+Q01668+O60840); assay: Inhibition of L-type Ca+2 channels; assay type: protein assay
[5] = Bioavailability in rat; assay type: ADME, organism-based; details: in vivo
[6] = Volume of distribution in steady state was determined in rat; assay type: ADME, organism-based; details: in vivo, read-out: Vdss
[7] = Inhibitory concentration was determined against peripheral blood mononuclear cells (PBMC); assay type: functional
[8] = Plasma clearance in rat; assay type: ADME, organism-based; details: read-out: Clp
[9] = Bioavailability in dog; assay type: ADME, organism-based, Canis lupus familiaris; details: in vivo
[10] = Volume of distribution in steady state was determined in dog; assay type: ADME, organism-based, Canis lupus familiaris; details: in vivo, read-out: Vdss
[11] = Plasma clearance in dog; assay type: ADME, organism-based, Canis lupus familiaris; details: read-out: Clp
[12] = Half-life in rhesus monkey; assay type: ADME; details: cercopithecidae, in vivo
[13] = Plasma clearance in rhesus monkey; assay type: ADME, organism-based; details: cercopithecidae, read-out: Clp
[14] = Bioavailability in Rhesus monkey; assay type: ADME, organism-based, Macaca mulatta; details: in vivo
[15] = Volume of distribution in steady state was determined in rhesus monkey; assay type: ADME, organism-based; details: cercopithecidae, in vivo; read-out: Vdss
[16] = Half-life in dog; assay type: ADME, organism-based, Canis lupus familiaris; details: in vivo
Macaca mulatta = species: Macaca mulatta; assay: Plasma clearance in rhesus monkey; details: read-out: Clp

Chain of C-C chemokine receptor type 5 (P51681 whole entry): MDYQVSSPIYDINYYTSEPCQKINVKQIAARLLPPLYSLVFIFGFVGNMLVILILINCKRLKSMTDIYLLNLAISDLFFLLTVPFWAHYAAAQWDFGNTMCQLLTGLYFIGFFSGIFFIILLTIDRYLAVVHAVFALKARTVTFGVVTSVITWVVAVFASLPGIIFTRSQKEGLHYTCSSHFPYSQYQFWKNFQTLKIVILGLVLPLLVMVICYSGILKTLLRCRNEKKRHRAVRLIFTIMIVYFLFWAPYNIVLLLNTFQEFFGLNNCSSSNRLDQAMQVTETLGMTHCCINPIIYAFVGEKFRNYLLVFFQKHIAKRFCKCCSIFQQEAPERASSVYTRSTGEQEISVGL

Q: Which IC50 [1] does the source give for `O=C(O)[C@@H](CC1CC1)N1C[C@H](CN2CCC(CCCc3ccccc3)CC2)[C@@H](c2ccccc2)C1` here?
A: 0.1 nM

Q: What about the IC90 [2] of the same compound?
A: 11 nM

Q: For `O=C(O)[C@H](C1CCCCC1)N1C[C@H](CN2CCC(O)(CCCc3ccccc3)CC2)[C@@H](c2ccccc2)C1`, which IC50 [1] is on record?
A: 5 nM

Q: What about the IC90 [2] of the same compound?
A: > 300 nM

Q: With `O=C(O)[C@@H](C1CCC1)N1C[C@H](CN2CCC(CCCc3ccccc3)CC2)[C@@H](c2ccccc2)C1` as the compound, how does the IC50 [1] read?
A: 0.1 nM

Q: And the IC90 [2]?
A: 11 nM

Q: With `O=C(O)[C@@H](C1CCCCC1)N1C[C@H](CN2CCC(c3ccc(F)cc3)CC2)[C@@H](c2ccccc2)C1` as the compound, how does the IC50 [1] read?
A: 4 nM

Q: And the IC90 [2]?
A: 0.4 nM

Q: For `OC1(CCCc2ccc(-c3nnn[nH]3)cc2)CCN(C[C@H]2CN(CC3CCCCC3)C[C@@H]2c2ccccc2)CC1`, which half-life [3] is on record?
A: 0.3 h

Q: What about the IC50 [4] of the same compound?
A: > 10000 nM

Q: What about the bioavailability [5] of the same compound?
A: 0%

Q: And the IC90 [2]?
A: 4 nM

Q: What does the source list for `O=C(O)[C@@H](C1CC1)N1C[C@H](CN2CCC(CCCc3ccccc3)CC2)[C@@H](c2ccccc2)C1`?
A: IC50 [1]: 3 nM; IC90 [2]: 300 nM

Q: With `OC[C@H](C1CCCCC1)N1C[C@H](CN2CCC(O)(CCCc3ccccc3)CC2)[C@@H](c2ccccc2)C1` as the compound, how does the IC50 [1] read?
A: 1 nM

Q: Which results are given for `O=C(OCc1ccccc1)[C@@H](C1CCCCC1)N1C[C@H](CN2CCC(O)(CCCc3ccccc3)CC2)[C@@H](c2ccccc2)C1`?
A: IC50 [1]: 3.6 nM; IC90 [2]: > 300 nM

Q: For `CC(C)[C@H](C(=O)O)N1C[C@H](CN2CCC(O)(CCCc3ccccc3)CC2)[C@@H](c2ccccc2)C1`, which IC50 [1] is on record?
A: 2 nM

Q: And the IC90 [2]?
A: 333 nM

Q: With `COC(=O)[C@@H](C1CCCCC1)N1C[C@H](CN2CCC(O)(CCCc3ccccc3)CC2)[C@@H](c2ccccc2)C1` as the compound, how does the IC50 [1] read?
A: 1 nM

Q: With `O=C(O)[C@@H](CC1CCC1)N1C[C@H](CN2CCC(CCCc3ccccc3)CC2)[C@@H](c2ccccc2)C1` as the compound, how does the IC50 [1] read?
A: 0.1 nM

Q: What about the half-life [3] of the same compound?
A: 3 h

Q: And the IC50 [4]?
A: 2700 nM

Q: What about the Vd [6] of the same compound?
A: 5.9 L/kg

Q: What about the IC95 [7] of the same compound?
A: < 8 nM

Q: What about the clearance [8] of the same compound?
A: 26.5 mL/min/kg

Q: What about the bioavailability [5] of the same compound?
A: 29%

Q: And the IC90 [2]?
A: 1.2 nM

Q: With `C[C@H](C(=O)O)N1C[C@H](CN2CCC(O)(CCCc3ccccc3)CC2)[C@@H](c2ccccc2)C1` as the compound, how does the IC50 [1] read?
A: 3 nM

Q: And the IC90 [2]?
A: 333 nM

Q: Which results are given for `O=C(O)[C@@H](C1CCCCC1)N1C[C@H](CN2CCC(CCCc3ccccc3)CC2)[C@@H](c2ccccc2)C1`?
A: bioavailability [9]: 43%; IC50 [1]: 0.1 nM; Vd [10]: 3.1 L/kg; half-life [3]: 2.1 h; IC50 [4]: 5300 nM; Vd [6]: 3.3 L/kg; clearance [11]: 10.9 mL/min/kg; half-life [12]: 6.3 h; IC95 [7]: 77 nM; clearance [8]: 17.6 mL/min/kg; clearance [13]: 17.1 mL/min/kg; bioavailability [14]: 10%; bioavailability [5]: 26%; IC90 [2]: 11 nM; Vd [15]: 6.2 L/kg; half-life [16]: 9.2 h

Q: With `O=C(O)[C@@H](C1CCCC1)N1C[C@H](CN2CCC(CCCc3ccccc3)CC2)[C@@H](c2ccccc2)C1` as the compound, how does the IC50 [1] read?
A: 0.2 nM

Q: What about the IC90 [2] of the same compound?
A: 11 nM

Q: What does the source list for `CC(C)[C@H](C(=O)O)N1C[C@H](CN2CCC(c3ccc(F)cc3)CC2)[C@@H](c2ccccc2)C1`?
A: bioavailability [9]: 34%; IC50 [1]: 36 nM; Vd [10]: 8.6 L/kg; clearance (Macaca mulatta): 14.6 mL/min/kg; half-life [3]: 1.9 h; IC50 [4]: > 10000 nM; Vd [6]: 8.4 L/kg; clearance [11]: 13.1 mL/min/kg; half-life [12]: 7.8 h; IC95 [7]: > 3000 nM; clearance [8]: 68.3 mL/min/kg; bioavailability [14]: 84%; bioavailability [5]: 50%; IC90 [2]: > 100 nM; Vd [15]: 4.2 L/kg; half-life [16]: 6.4 h

Q: Which results are given for `O=C(O)[C@@H](C1CCCCC1)N1C[C@H](CN2CCC(O)(CCCc3ccccc3)CC2)[C@@H](c2ccccc2)C1`?
A: IC50 [1]: 0.5 nM; half-life [3]: 1.8 h; Vd [6]: 15 L/kg; IC95 [7]: 187 nM; clearance [8]: 128 mL/min/kg; bioavailability [5]: 0%; IC90 [2]: 11 nM

Q: Which IC50 [1] does the source give for `COC(=O)[C@H](C1CCCCC1)N1C[C@H](CN2CCC(O)(CCCc3ccccc3)CC2)[C@@H](c2ccccc2)C1` here?
A: 4 nM

Q: Which IC50 [1] does the source give for `O=C(O)[C@@H](c1ccccc1)N1C[C@H](CN2CCC(O)(CCCc3ccccc3)CC2)[C@@H](c2ccccc2)C1` here?
A: 0.8 nM

Q: And the IC90 [2]?
A: 33 nM

Q: For `OC[C@@H](C1CCCCC1)N1C[C@H](CN2CCC(O)(CCCc3ccccc3)CC2)[C@@H](c2ccccc2)C1`, which IC50 [1] is on record?
A: 1 nM

Q: And the IC90 [2]?
A: 300 nM

Q: What does the source list for `CC(C)[C@H](C(=O)O)N1C[C@H](CN2CCC(CCCc3ccccc3)CC2)[C@@H](c2ccccc2)C1`?
A: IC50 [1]: 0.7 nM; IC90 [2]: 111 nM

Q: Which IC50 [1] does the source give for `O=C(O)CN1C[C@H](CN2CCC(O)(CCCc3ccccc3)CC2)[C@@H](c2ccccc2)C1` here?
A: 6 nM

Q: And the IC90 [2]?
A: 3000 nM

Q: With `O=C(OCc1ccccc1)[C@H](C1CCCCC1)N1C[C@H](CN2CCC(O)(CCCc3ccccc3)CC2)[C@@H](c2ccccc2)C1` as the compound, how does the IC50 [1] read?
A: 24 nM

Q: And the IC90 [2]?
A: > 300 nM
